Experimental data reported in ChEMBL document CHEMBL1201862, “PubChem BioAssay data set” (2004).
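Results reflect a 48-hour exposure of cells in 96-well plates to compound at five concentrations. At the GI50, growth is halved.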 Calls of active or inactive are those of the source. Cut-off read from the data, not from the text of the source: active = GI50 up to about 1.1 µM and inactive = higher.

Columns and labels:
Experiment in all cases: NCI anticancer screen, dose series, 48 h
[1] = system: HCC 2998
[2] = system: OVCAR-3
[3] = system: SK-OV-3
[4] = system: COLO 205
[5] = system: A549
[6] = system: HL-60
[7] = system: Malme-3M
[8] = system: SF-295
[9] = system: SW-620
[10] = system: NCI/ADR-RES
[11] = system: SNB-19
[12] = system: RPMI-8226
[13] = system: SF-268
[14] = system: A498
[15] = system: HCT-15
[16] = system: UACC-257
[17] = system: SR
[18] = system: SF-539
[19] = system: K562
[20] = system: IGROV-1
[21] = system: SN12C
[22] = system: UO-31
[23] = system: ACHN
[24] = system: CAKI-1
[25] = system: EKVX
[26] = system: MOLT-4
[27] = system: SNB-75
[28] = system: SK-MEL-28
[29] = system: PC-3
[30] = system: NCI-H226
[31] = system: OVCAR-4
[32] = system: OVCAR-5
[33] = system: HT-29
[34] = system: HOP-92
[35] = system: T47D
[36] = system: NCI-H522
[37] = system: MDA-MB-435
[38] = system: NCI-H23
[39] = system: U-251
[40] = system: DU-145
[41] = system: NCI-H460
[42] = system: BT-549
[43] = system: Hs-578T
[44] = system: KM12
[45] = system: HCT-116
[46] = system: LOX IMVI
[47] = system: HOP-62
[48] = system: SK-MEL-2
[49] = system: CCRF-CEM
[50] = system: SK-MEL-5
[51] = system: TK-10
[52] = system: UACC-62
[53] = system: MCF7
[54] = system: MDA-MB-231
[55] = system: OVCAR-8
[56] = system: M14
[57] = system: 786-0
[58] = system: MDA-N

## C=C1CC(COc2ccc3c(C)c(C)c(=O)oc3c2C)(c2ccccc2)OC1=O (stereo not given)
[1]
  GI50: 2.48 µM (inactive)
[2]
  GI50: 2.88 µM (inactive)
[3]
  GI50: 3.28 µM (inactive)
[4]
  GI50: 1.6 µM (inactive)
[5]
  GI50: 11.7 µM (inactive)
[6]
  GI50: 0.711 µM (active)
[7]
  GI50: 1.62 µM (inactive)
[8]
  GI50: 5.66 µM (inactive)
[9]
  GI50: 1.22 µM (inactive)
[10]
  GI50: 2.7 µM (inactive)
[11]
  GI50: 13.5 µM (inactive)
[12]
  GI50: 0.486 µM (active)
[13]
  GI50: 2.64 µM (inactive)
[14]
  GI50: 2.7 µM (inactive)
[15]
  GI50: 1.88 µM
[16]
  GI50: 0.531 µM (active)
[17]
  GI50: 1.46 µM (inactive)
[18]
  GI50: 2.02 µM (inactive)
[19]
  GI50: 0.671 µM (active)
[20]
  GI50: 1.73 µM (inactive)
[21]
  GI50: 3.39 µM (inactive)
[22]
  GI50: 2.77 µM (inactive)
[23]
  GI50: 3.51 µM (inactive)
[24]
  GI50: 1.5 µM (inactive)
[25]
  GI50: 7.55 µM (inactive)
[26]
  GI50: 1.11 µM (active)
[27]
  GI50: 2.67 µM (inactive)
[28]
  GI50: 2.07 µM (inactive)
[29]
  GI50: 1.73 µM (inactive)
[30]
  GI50: 2.27 µM (inactive)
[31]
  GI50: 2.32 µM (inactive)
[32]
  GI50: 9.02 µM (inactive)
[33]
  GI50: 1.53 µM (inactive)
[34]
  GI50: 1.45 µM (inactive)
[35]
  GI50: 2.07 µM (inactive)
[36]
  GI50: 1.64 µM (inactive)
[37]
  GI50: 2.7 µM (inactive)
[38]
  GI50: 2.04 µM (inactive)
[39]
  GI50: 7.64 µM (inactive)
[40]
  GI50: 2.07 µM (inactive)
[41]
  GI50: 6.01 µM (inactive)
[42]
  GI50: 1.63 µM (inactive)
[43]
  GI50: 4.26 µM (inactive)
[44]
  GI50: 2.86 µM (inactive)
[45]
  GI50: 1.41 µM (inactive)
[46]
  GI50: 1 µM (active)
[47]
  GI50: 6.22 µM (inactive)
[48]
  GI50: 2.02 µM (inactive)
[49]
  GI50: 0.333 µM (active)
[50]
  GI50: 1.59 µM (inactive)
[51]
  GI50: 1.45 µM (inactive)
[52]
  GI50: 1.69 µM (inactive)
[53]
  GI50: 1.42 µM (inactive)
[54]
  GI50: 2.72 µM (inactive)
[55]
  GI50: 1.72 µM (inactive)
[56]
  GI50: 1.57 µM (inactive)
[57]
  GI50: 1.41 µM (inactive)
[58]
  GI50: 1.87 µM (inactive)

## COc1cc2c(c(O)c1OC)CC1CCC(=O)N1C2c1cccc2ccccc12 (stereo not given)
[1]
  GI50: 16 µM (inactive)
[2]
  GI50: 22.2 µM (inactive)
[3]
  GI50: 18.9 µM (inactive)
[4]
  GI50: 15.6 µM (inactive)
[5]
  GI50: 31.6 µM (inactive)
[6]
  GI50: 0.813 µM (active)
[7]
  GI50: 21.8 µM (inactive)
[8]
  GI50: 18.6 µM (inactive)
[9]
  GI50: 27.7 µM (inactive)
[10]
  GI50: 19.4 µM (inactive)
[11]
  GI50: 15.6 µM (inactive)
[12]
  GI50: 19.3 µM (inactive)
[13]
  GI50: 25.1 µM (inactive)
[14]
  GI50: 18.5 µM (inactive)
[15]
  GI50: 24.4 µM
[16]
  GI50: 23.6 µM (inactive)
[17]
  GI50: > 100 µM (inactive)
[18]
  GI50: 16.1 µM (inactive)
[19]
  GI50: 35.3 µM (inactive)
[20]
  GI50: 24 µM (inactive)
[21]
  GI50: 16.9 µM (inactive)
[22]
  GI50: 17.6 µM (inactive)
[23]
  GI50: 29.3 µM (inactive)
[24]
  GI50: 19.5 µM (inactive)
[25]
  GI50: 22.3 µM (inactive)
[26]
  GI50: 26.1 µM (inactive)
[27]
  GI50: 39 µM (inactive)
[28]
  GI50: 21.9 µM (inactive)
[29]
  GI50: 15.6 µM (inactive)
[31]
  GI50: > 10 µM (inactive)
[32]
  GI50: 19.1 µM (inactive)
[33]
  GI50: 18.2 µM (inactive)
[34]
  GI50: 14.1 µM (inactive)
[35]
  GI50: 18.9 µM (inactive)
[36]
  GI50: 20.3 µM (inactive)
[37]
  GI50: 19.2 µM (inactive)
[38]
  GI50: 24 µM (inactive)
[39]
  GI50: 19.8 µM (inactive)
[40]
  GI50: 18.5 µM (inactive)
[41]
  GI50: 22.9 µM (inactive)
[42]
  GI50: 22.3 µM (inactive)
[43]
  GI50: 19.7 µM (inactive)
[44]
  GI50: 23.9 µM (inactive)
[45]
  GI50: 20.4 µM (inactive)
[46]
  GI50: 23 µM (inactive)
[47]
  GI50: 20.8 µM (inactive)
[48]
  GI50: 17.5 µM (inactive)
[49]
  GI50: 30.8 µM (inactive)
[50]
  GI50: 13.4 µM (inactive)
[51]
  GI50: 39.4 µM (inactive)
[52]
  GI50: 14.2 µM (inactive)
[53]
  GI50: 30.9 µM (inactive)
[54]
  GI50: 16.4 µM (inactive)
[55]
  GI50: 20 µM (inactive)
[56]
  GI50: 17.4 µM (inactive)
[57]
  GI50: 30.3 µM (inactive)
[58]
  GI50: 16.3 µM (inactive)
